Experimental data published in article PMC9116245, “New 1,2,3-triazole linked ciprofloxacin-chalcones induce DNA damage by inhibiting human topoisomerase I& II and tubulin polymerization” (Journal of Enzyme Inhibition and Medicinal Chemistry, 2022).

Legend:
Experiment in all cases: NCI one-dose screen
Type in all cases: cell-based
[1] = tested on: NCI-H23; conditions: Homo sapiens; NCI-H23, 10 µM; read-out: Growth Percent
Experimental: (§1) For screening of anticancer properties, all the developed compounds were chosen by the (NCI) for in-vitro antitumor evaluation. The assay was carried out using 59 human cancer cell lines obtained from nine tumour subpanels (breast, ovarian, melanoma, leukaemia, renal, CNS, lung, prostate, and colon cancer cell lines). Compounds were assessed at a 10 µM concentration. […] Also, hybrids 4a, 4b, 4e, 4i and 4j produced significant anti-proliferative effect in several cancer cells, particularly in leukaemia (RPMI-8226) and colon (HCT116) cells with growth percent of 47.87, −14.59, −24.56, −24.42, −15.84, −9.74, −53.36, −10.26, −31.29, and −39.51%, respectively.
(§2) The method description for NCI anticancer screening is provided in detail in the standard NCI-60 testing protocol.

[2] = tested on: HOP-62; conditions: Homo sapiens; HOP-62, 10 µM; read-out: Growth Percent
Experimental: as §1, §2

[3] = tested on: SNB-75; conditions: Homo sapiens; SNB-75, 10 µM; read-out: Growth Percent
Experimental: as §1, §2

[4] = tested on: UACC-62; conditions: Homo sapiens; UACC-62, 10 µM; read-out: Growth Percent
Experimental: as §1, §2

[5] = tested on: NCI/ADR-RES; conditions: Homo sapiens, read-out: Growth Percent
Experimental: as §1, §2

[6] = tested on: SF-539; conditions: Homo sapiens; SF-539, 10 µM; read-out: Growth Percent
Experimental: as §1, §2

[7] = tested on: HCT-15; conditions: Homo sapiens; HCT-15, 10 µM; read-out: Growth Percent
Experimental: as §1, §2

[8] = tested on: SK-MEL-28; conditions: Homo sapiens; SK-MEL-28, 10 µM; read-out: Growth Percent
Experimental: as §1, §2

[9] = tested on: DU-145; conditions: Homo sapiens; DU-145, 10 µM; read-out: Growth Percent
Experimental: as §1, §2

[10] = tested on: SR; conditions: Homo sapiens, read-out: Growth Percent
Experimental: as §1, §2

[11] = tested on: NCI-H460; conditions: Homo sapiens; NCI-H460, 10 µM; read-out: Growth Percent
Experimental: as §1, §2

[12] = tested on: MDA-MB-231/ATCC; conditions: Homo sapiens, read-out: Growth Percent
Experimental: as §1, §2

[13] = tested on: SK-MEL-5; conditions: Homo sapiens; SK-MEL-5, 10 µM; read-out: Growth Percent
Experimental: as §1, §2

[14] = tested on: M14; conditions: Homo sapiens; M14, 10 µM; read-out: Growth Percent
Experimental: as §1, §2

[15] = tested on: SF-268; conditions: Homo sapiens; SF-268, 10 µM; read-out: Growth Percent
Experimental: as §1, §2

[16] = tested on: RXF 393; conditions: Homo sapiens; RXF 393, 10 µM; read-out: Growth Percent
Experimental: as §1, §2

[17] = tested on: 786-0; conditions: Homo sapiens; 786-0, 10 µM; read-out: Growth Percent
Experimental: as §1, §2

[18] = tested on: BT-549; conditions: Homo sapiens; BT-549, 10 µM; read-out: Growth Percent
Experimental: as §1, §2

[19] = tested on: TK-10; conditions: Homo sapiens; TK-10, 10 µM; read-out: Growth Percent
Experimental: as §1, §2

[20] = tested on: UO-31; conditions: Homo sapiens; UO-31, 10 µM; read-out: Growth Percent
Experimental: as §1, §2

[21] = tested on: EKVX; conditions: Homo sapiens, read-out: Growth Percent
Experimental: as §1, §2

[22] = tested on: K-562; conditions: Homo sapiens, K562; K-562, 10 µM; read-out: Growth Percent
Experimental: as §1, §2

[23] = tested on: HOP-92; conditions: Homo sapiens; HOP-92, 10 µM; read-out: Growth Percent
Experimental: as §1, §2

[24] = tested on: SN12C; conditions: Homo sapiens, read-out: Growth Percent
Experimental: as §1, §2

[25] = tested on: MDA-MB-468; conditions: Homo sapiens; MDA-MB-468, 10 µM; read-out: Growth Percent
Experimental: as §1, §2

[26] = tested on: U251; conditions: Homo sapiens, U-251; U251, 10 µM; read-out: Growth Percent
Experimental: as §1, §2

[27] = tested on: SK-MEL-2; conditions: Homo sapiens; SK-MEL-2, 10 µM; read-out: Growth Percent
Experimental: as §1, §2

[28] = tested on: NCI-H522; conditions: Homo sapiens; NCI-H522, 10 µM; read-out: Growth Percent
Experimental: as §1, §2

[29] = tested on: SF-295; conditions: Homo sapiens; SF-295, 10 µM; read-out: Growth Percent
Experimental: as §1, §2

[30] = tested on: COLO 205; conditions: Homo sapiens; COLO 205, 10 µM; read-out: Growth Percent
Experimental: as §1, §2

[31] = tested on: MOLT-4; conditions: Homo sapiens; MOLT-4, 10 µM; read-out: Growth Percent
Experimental: as §1, §2

[32] = tested on: SK-OV-3; conditions: Homo sapiens; SK-OV-3, 10 µM; read-out: Growth Percent
Experimental: as §1, §2

[33] = tested on: OVCAR-8; conditions: Homo sapiens; OVCAR-8, 10 µM; read-out: Growth Percent
Experimental: as §1, §2

[34] = tested on: HT29; conditions: Homo sapiens, HT-29; HT29, 10 µM; read-out: Growth Percent
Experimental: as §1, §2

[35] = tested on: KM12; conditions: Homo sapiens; KM12, 10 µM; read-out: Growth Percent
Experimental: as §1, §2

[36] = tested on: SNB-19; conditions: Homo sapiens; SNB-19, 10 µM; read-out: Growth Percent
Experimental: as §1, §2

[37] = tested on: PC-3; conditions: Homo sapiens; PC-3, 10 µM; read-out: Growth Percent
Experimental: as §1, §2

SMILES | activity at 10 µM [1] [%] | activity at 10 µM [2] [%] | activity at 10 µM [3] [%] | activity at 10 µM [4] [%] | activity at 10 µM [5] [%] | activity at 10 µM [6] [%] | activity at 10 µM [7] [%] | activity at 10 µM [8] [%] | activity at 10 µM [9] [%] | activity at 10 µM [10] [%] | activity at 10 µM [11] [%] | activity at 10 µM [12] [%] | activity at 10 µM [13] [%] | activity at 10 µM [14] [%] | activity at 10 µM [15] [%] | activity at 10 µM [16] [%] | activity at 10 µM [17] [%] | activity at 10 µM [18] [%] | activity at 10 µM [19] [%] | activity at 10 µM [20] [%] | other results
O=C(/C=C/c1ccc(F)cc1)c1ccc(-n2cc(CN3CCN(c4cc5c(cc4F)c(=O)c(C(=O)O)cn5C4CC4)CC3)nn2)cc1 [Compound 4e, (E)-1-cyclopropyl-6-fluoro-7–(4-((1–(4-(3-(4-fluorophenyl)acryloyl)phenyl)-1H-1,2,3-triazol-4-yl)methyl)piperazin-1-yl)-4-oxo-1,4-dihydroquinoline-3-carboxylic acid] | 80.3 | 67.3 | 68.1 | 55.8 | 92.1 | 27.9 | 63.4 | 68 | 51.6 | 7.11 | 32.5 | 65.3 | 79 | 60.9 | 35.7 | 45 | 33.2 | 32 | 85.2 | 62.8 | activity at 10 µM [21]: 87.5%; activity at 10 µM [22]: 21.9%; activity at 10 µM [23]: 50.3%; activity at 10 µM [24]: 8.77%; activity at 10 µM [25]: 32.9%; activity at 10 µM [26]: 16.6%; activity at 10 µM [27]: 89%; activity at 10 µM [28]: 48.5%; activity at 10 µM [29]: 81.2%; activity at 10 µM [30]: 105%; activity at 10 µM [31]: 31.8%; activity at 10 µM [32]: 71.6%; activity at 10 µM [33]: 23.3%; activity at 10 µM [34]: 28%; activity at 10 µM [35]: 32.9%; activity at 10 µM [36]: 31.6%; activity at 10 µM [37]: 57.4%
O=C(/C=C/c1ccccc1)c1ccc(-n2cc(CN3CCN(c4cc5c(cc4F)c(=O)c(C(=O)O)cn5C4CC4)CC3)nn2)cc1 [Compound 4a, (E) 7-(4-((1–(4-Cinnamoylphenyl)-1H-1,2,3-triazol-4-yl)methyl)piperazin-1-yl)-1-cyclopropyl-6-fluoro-4-oxo-1,4-dihydroquinoline-3-carboxylic acid] | 83.5 | 78.7 | 92.7 | 90.5 | 87.9 | 92.6 | 93.8 | 99.3 | 104 | 99.6 | 91.2 | 97.1 | 84.3 | 90.1 | 85.3 | 72 | 87.9 | 102 | 103 | 63.1 | activity at 10 µM [21]: 88.5%; activity at 10 µM [22]: 101%; activity at 10 µM [23]: 79.9%; activity at 10 µM [24]: 103%; activity at 10 µM [25]: 72.5%; activity at 10 µM [26]: 98.4%; activity at 10 µM [27]: 96.4%; activity at 10 µM [28]: 89.2%; activity at 10 µM [29]: 95.9%; activity at 10 µM [30]: 110%; activity at 10 µM [31]: 102%; activity at 10 µM [32]: 84.9%; activity at 10 µM [33]: 95.1%; activity at 10 µM [34]: 90.8%; activity at 10 µM [35]: 84.9%; activity at 10 µM [36]: 98.2%; activity at 10 µM [37]: 83.9%
COc1ccc(/C=C/C(=O)c2ccc(-n3cc(CN4CCN(c5cc6c(cc5F)c(=O)c(C(=O)O)cn6C5CC5)CC4)nn3)cc2)cc1OC [Compound 4i, (E)-1-cyclopropyl-7-(4-((1-(4-(3–(3,4-dimethoxyphenyl)acryloyl)phenyl)-1H-1,2,3-triazol-4-yl)methyl)piperazin-1-yl)-6-fluoro-4-oxo-1,4-dihydroquinoline-3-carboxylic acid] | 78.7 | 75.6 | 58.3 | 53.9 | 90.7 | 50.8 | 80.6 | 79.8 | 83.2 | -2.25 | 77.9 | 67.2 | 69 | 59 | 56 | 64.2 | 71.9 | 65.8 | 104 | 54.9 | activity at 10 µM [21]: 96.6%; activity at 10 µM [22]: 42.5%; activity at 10 µM [23]: 66.5%; activity at 10 µM [24]: 32.6%; activity at 10 µM [25]: 26.3%; activity at 10 µM [26]: 41.4%; activity at 10 µM [27]: 97%; activity at 10 µM [28]: 67.6%; activity at 10 µM [29]: 94.9%; activity at 10 µM [30]: 98.2%; activity at 10 µM [31]: 64.2%; activity at 10 µM [32]: 76.9%; activity at 10 µM [33]: 67.4%; activity at 10 µM [34]: 29.6%; activity at 10 µM [35]: 42.6%; activity at 10 µM [36]: 67.7%; activity at 10 µM [37]: 56.3%
COc1ccc(/C=C/C(=O)c2ccc(-n3cc(CN4CCN(c5cc6c(cc5F)c(=O)c(C(=O)O)cn6C5CC5)CC4)nn3)cc2)cc1 [Compound 4g, (E)-1-Cyclopropyl-6-fluoro-7-(4-((1-(4-(3-(4-methoxyphenyl)acryloyl)phenyl)-1H-1,2,3-triazol-4-yl)methyl)piperazin-1-yl)-4-oxo-1,4-dihydroquinoline-3-carboxylic acid] | 85.4 | 85.5 | 91.6 | 74.6 | 94.8 | 92.8 | 95.8 | 85.3 | 90.8 | 13.1 | 82.2 | 88.1 | 81.6 | 88.7 | 77.3 | 75 | 78.1 | 90 | 92.4 | 65.1 | activity at 10 µM [21]: 96.6%; activity at 10 µM [22]: 67.5%; activity at 10 µM [23]: 84.8%; activity at 10 µM [24]: 58.2%; activity at 10 µM [25]: 74.4%; activity at 10 µM [26]: 68.6%; activity at 10 µM [27]: 99.1%; activity at 10 µM [28]: 79.1%; activity at 10 µM [29]: 90.7%; activity at 10 µM [30]: 97.1%; activity at 10 µM [31]: 81.7%; activity at 10 µM [32]: 84.6%; activity at 10 µM [33]: 83.6%; activity at 10 µM [34]: 78.2%; activity at 10 µM [35]: 86.4%; activity at 10 µM [36]: 84.1%; activity at 10 µM [37]: 89%
